Assay results published in publication PMC9319939, “Siccanin Is a Dual-Target Inhibitor of Plasmodium falciparum Mitochondrial Complex II and Complex III” (Pharmaceuticals, 2022).

Key:
Format in all cases: cell-based
[1] = tested on: Dd2_GNF (Carl-I1139K mutation); assay: Growth inhibition of Dd2_GNF (GNF156-resistant); details: Plasmodium falciparum, read-out: Growth inhibition EC50, GNF
Procedure: P. falciparum 3D7-yDHODH was prepared and maintained as described previously. P. falciparum Dd2, and Dd2-derived mutant strains were kindly provided by David A. Fidock, and maintained at Nagasaki University essentially as described in reference, except without supplementation with WR99210.
Synchronized ring-form parasites (0.3% parasitemia) were prepared in complete medium containing different concentration of various compounds (at a fixed final DMSO concentration of 0.1% (v/v)) and distributed to 96-well plates at 100 μL/well. After 72 h of incubation, parasite growth was monitored by the previously described lactate dehydrogenase (PfLDH)-based assay method; plates were read using a SpectraMax® Paradigm spectrophotometer (Molecular Devices, Inc.; San Jose, CA, USA). EC50 values were calculated using Prism® ver.6.01 (GraphPad; San Diego, CA, USA). Values are presented as the means of three independent experiments.

DLD-1 cells = assay: Mammalian cell cytotoxicity assay, CCK8, 48 h; details: Homo sapiens
Procedure: (§1) Human colorectal adenocarcinoma cells (DLD-1) and Human Dermal Fibroblasts (HDF) cells were obtained from Taiho Pharmaceutical Company (Tokyo, Japan). DLD-1 cells were cultured in RPMI 1640 medium supplemented with 10% (v/v) heat-inactivated fetal bovine serum (FBS) (Gibco; San Diego, CA, USA); HDF cells were cultured in DMEM/F12 medium supplemented with 10% (v/v) heat-inactivated FBS. For both lines, cells were grown under 5% CO2 at 37 °C in an ACI-165D CO2 incubator (ASTEC; Fukuoka, Japan).
(§2) DLD-1 and HDF cells, (2.5 × 10^4 cells/mL) in 96-well plates, were cultured for 24 h. The cells then were washed with phosphate-buffered saline (PBS) and the medium was replaced with fresh medium supplemented with 10% (v/v) FBS. Medium containing siccanin at various concentrations was added to the wells and the cells were cultured for another 48 h. Controls were treated with medium containing 1% (v/v) DMSO and 10% (v/v) FBS. Next, the cells were washed with PBS and the medium was replaced with fresh medium supplemented with 10% (v/v) FBS. An aliquot (10 µL) of CCK8 solution (Cell Counting Kit-8; Dojindo Laboratories; Kumamoto, Japan) was added to each well and the plates were incubated for another 2 h, at which point absorbance at 450 nm was monitored using a SpectraMax® Paradigm spectrophotometer. The EC50 values were calculated using Prism® ver.6.01. The selectivity was calculated as the ratio between DLD-1 or HDF versus P. falciparum IC50s.

HDF cells = assay: Mammalian cell cytotoxicity assay, CCK8, 48 h; details: Homo sapiens
Procedure: as §1, §2

In the case of Cc1cc(O)c2c(c1)O[C@@]1(C)CC[C@H]3C(C)(C)CCC[C@]34CO[C@@H]2[C@H]41 [Siccanin], the EC50 [1] is reported as 13.4 µM, the EC50 (DLD-1 cells; DLD-1, 48 h, read-out: 50% effective concentration (EC50), growth of DLD-1 cells) is reported as 34.2 ± 2.73 µM and the IC50 (DLD-1 cells; DLD-1 cells, read-out: Siccanin IC50, Mammal, Growth) is reported as 34.2 µM. For the same molecule, the EC50 (HDF cells; HDF, 48 h, read-out: 50% effective concentration (EC50), growth of HDF cells) was 16.1 ± 1.21 µM and the IC50 (HDF cells; HDF cells, read-out: Siccanin IC50, Mammal, Growth) was 16.1 µM.
